The values that follow come from ChEMBL document CHEMBL1124604, “Synthesis and benzodiazepine receptor affinities of rigid analogues of 3-carboxy-beta-carbolines: demonstration that the benzodiazepine receptor recognizes preferentially the s-cis conformation of the 3-carboxy group” (J Med Chem, 1989).

pIC50: −log10 of the molar value. Where only a bound is given, the exact number is not on record here.

In general, pIC50 refers to the IC50 on a negative log10 scale, so that one unit is a factor of ten. Low readings indicate a large IC50, high ones a small IC50.

The nature of this assay: In vitro inhibition of [3H]flunitrazepam binding to GABA-A receptor of rat cerebral cortex membranes. Type of assay: cell membranes, Membrane.
For the molecule `CNC(=O)c1cc2c(cn1)[nH]c1ccccc12`, the negative logarithm of the IC50 (pIC50) is 6.71.

For the molecule `O=C1OCCc2c1[nH]cc1nc3ccccc3c2-1`, the pIC50 was 7.38.

`CCOC(=O)c1cc2c(cn1)[nH]c1ccccc12`: the pIC50 was 8.15. This pIC50 is 0.77 log units higher than that of the molecule before.

`O=C1NCCc2c1[nH]cc1nc3ccccc3c2-1` had a negative-log IC50 (pIC50) of 6.82.

For `CCc1c(C(=O)OC)[nH]cc2nc3ccccc3c1-2`, the pIC50 was 7.57.

In the case of `CCc1c(C(=O)NC)[nH]cc2nc3ccccc3c1-2`, the pIC50 is under 5.00.

With `COC(=O)c1cc2c(cn1)[nH]c1ccccc12` [BETA-CCM], the negative logarithm of the IC50 (pIC50) was 8.46.
